# In patent KR20140086355A, “콜치신 유도체를 유효성분으로 포함하는 암의 예방 또는 치료용 조성물” (한국화학연구원, priority 2012, dated 2014):
# Entries after “also recorded” stand apart in the source; their conditions may differ.
# Assays:
# Type in all cases: cell-based
# [1] = system: PLK-1; assay: Western blot of Plk-1 in HCT116 cells; settings: HCT116, 48 h; listed as 콜치신
# [2] = system: human colorectal cancer cells [인간 대장암 세포]; assay: Apoptosis induction in human colorectal cancer cells (Western blot); settings: listed as 콜치신
# [3] = system: human colorectal cancer cells HCT116 [인간 대장암 세포, HCT116]; assay: alamarBlue cell proliferation assay, human colorectal cancer cells HCT116; settings: 48 h, concentration dependence (Fig. 3: 100nM-1μM; Fig. 9)
# [4] = system: PLK-1; assay: PLK-1 ELISA in HCT116 cells; settings: HCT116, 48 h
structure (smiles),measurement,setting,value
"COc1cc2c(c(OC)c1OC)-c1ccc(OC)c(=O)cc1[C@@H](NC(C)=O)CC2 [H11-G04, Colchicine]",inhibition of Plk-1 expression,[1],콜치신이 Plk-1의 발현을 억제함; also recorded: Plk-1의 발현도 역시 억제된다
same,induction of apoptosis,[2],콜치신이 인간 대장암 세포의 사멸(apoptosis)를 유도함; also recorded: 세포사멸을 유도
same,inhibition of cell proliferation,[3],세포증식이 농도에 따라 유의적으로 억제되는 효과가 나타났다
same,Plk-1 concentration,[4],콜치신에 의해 Plk-1 농도가 감소함
